Experiments:
[1] = tested on: Nras^G12D; Mll-Af9 murine AML cells; assay: aKG:succinate ratio in AML cells by GC/MS; assay type: cell-based; settings: FIG. 20F
OGDH = target: T1, OGDH (Homo sapiens, UniProt Q02218); assay: OGDH enzyme inhibition in vitro; assay type: biochemical
T1 sequence (Q02218 41-1023): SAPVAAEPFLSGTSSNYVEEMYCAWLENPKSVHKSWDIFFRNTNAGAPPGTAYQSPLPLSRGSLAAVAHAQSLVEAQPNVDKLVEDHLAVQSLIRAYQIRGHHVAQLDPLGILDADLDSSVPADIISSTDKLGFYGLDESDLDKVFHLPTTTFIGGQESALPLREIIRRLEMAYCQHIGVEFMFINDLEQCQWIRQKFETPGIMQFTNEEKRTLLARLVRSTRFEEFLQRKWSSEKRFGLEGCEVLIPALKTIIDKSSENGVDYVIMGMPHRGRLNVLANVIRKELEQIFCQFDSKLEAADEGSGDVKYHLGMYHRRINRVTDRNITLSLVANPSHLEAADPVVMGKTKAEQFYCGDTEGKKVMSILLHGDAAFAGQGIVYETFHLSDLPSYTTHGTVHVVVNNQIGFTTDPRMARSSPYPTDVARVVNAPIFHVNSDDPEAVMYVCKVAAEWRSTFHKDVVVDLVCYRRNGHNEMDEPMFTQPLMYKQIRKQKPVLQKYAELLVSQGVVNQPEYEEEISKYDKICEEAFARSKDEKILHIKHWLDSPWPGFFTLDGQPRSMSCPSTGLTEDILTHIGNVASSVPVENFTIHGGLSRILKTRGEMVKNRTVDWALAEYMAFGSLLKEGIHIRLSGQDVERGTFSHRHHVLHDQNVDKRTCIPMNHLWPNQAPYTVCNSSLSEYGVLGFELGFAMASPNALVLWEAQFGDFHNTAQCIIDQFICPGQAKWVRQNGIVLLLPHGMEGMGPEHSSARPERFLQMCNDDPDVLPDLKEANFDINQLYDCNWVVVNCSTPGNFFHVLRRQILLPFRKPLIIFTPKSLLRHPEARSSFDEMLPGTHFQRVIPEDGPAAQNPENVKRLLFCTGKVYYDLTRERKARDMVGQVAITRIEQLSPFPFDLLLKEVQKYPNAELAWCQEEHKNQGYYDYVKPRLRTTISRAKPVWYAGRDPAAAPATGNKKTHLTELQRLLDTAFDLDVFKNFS
From the text: It is worth noting that there are ongoing clinical trials in hematologic malignancies including AML for a compound designated CPI-613. This drug is an analog of lipoate, a catalytic co-factor and modulator of several metabolic enzymes, including the TCA enzymes pyruvate dehydrogenase (PDH) and OGDH. However, the compound is thought to elicit its anti-cancer effects through an indirect mechanism and may also target additional lipoate-dependent enzymes involved in amino acid catabolism. […] Instead development of specific inhibitors of OGDH was initiated for the purpose of exploiting a known metabolic phenotype mimicking the wt-p53 tumor suppressive effect. These concepts and compounds will be tested in our models of CK AML.

KP^sh cells [2] = assay: RNA-Seq / GSEA / qRT-PCR gene expression in KP^sh cells; assay type: cell-based, mouse
Description: qRT-PCR. Total RNA was extracted in triplicate wells from indicated conditions using the RNAeasy Mini Kit (Qiagen) according to manufacturer protocols. cDNA was synthesized from 1 μg of RNA (AffinityScript QPCR cDNA synthesis kit, Agilent) and QPCR amplification performed with SYBR green (Perfecta SYBR green fast mix, QuantaBio) using the following primer pairs on a ViiA 7 Real-Time PCR System (Life technologies). 36B4 was utilized as endogenous control.
RNA-Seq. Total RNA was isolated from duplicate wells of indicated conditions. RNA integrity and concentration were assessed using a BioAnalyzer (Agilent). RNA sequencing libraries were generated using Illumina mRNA TruSeq kit with dual index barcoding. […] Approximately 8 million paired-end 76 bp reads were sequenced per replicate on a HiSeq 2500 instrument on RAPID mode. […] Genome wide transcript counting was performed by HTSeq or featureCounts to generate FPKM matrix. […] Differential expression analysis was performed with DESeq2 package in R^50. Genes with a real adjusted p value were used for downstream analyses.
Gene Set Enrichment Analysis. Gene set enrichment analysis (GSEA) was performed using ranked lists. […] GSEAPreranked version 4 was used with default parameters and data were exported and graphed in GraphPad Prism version 7.

KP^sh cells [3] = assay: ATAC-Seq chromatin accessibility in KP^sh cells; assay type: cell-based, mouse; settings: KP^sh cells with dox, cell-permeable αKG
Description: Epigenomic Analysis. 1×10^6 KP^sh cells were washed with PBS and plated on and off dox 8 days (−D8) before collecting cells for ATAC-Seq analysis. Cells maintained on dox and off dox were passaged every 48 h. Three days prior to harvest, dimethyl-α-ketoglutarate (DM-αKG) was added to cells grown on dox, while DMSO was added to cells maintained on dox and cells maintained off dox. All cell groups (On dox, DMSO; On dox, DM-αKG; Off dox, DMSO) were split into 6-well plates in duplicate in fresh media containing dox, DM-αKG, and DMSO as indicated two days prior to harvest. This medium was refreshed 24 h before collection. […] Barcoded libraries were pooled (2-4 samples/lane) and run on an Illumina HiSeq 2500 sequencer using 50 bp paired-end reads.
For data analysis, quality and adapter filtering was applied to raw reads using ‘trim_galore’ before aligning to mouse assembly mm9 with bowtie2 using the default parameters. The Picard tool MarkDuplicates was used to remove reads with the same start site and orientation. The BEDTools suite was used to create read density profiles. Enriched regions were discovered using MACS2 and scored against matched input libraries (fold change >2 and FDR-adjusted p-value <0.1). […] ChIP-seq data were processed in the same way as ATAC-seq data, except read density profiles for ChIP included a read extension equivalent to the average library fragment size. […]

dox-treated KP^sh cells = assay: 5hmC flow cytometry in KP^sh cells; assay type: cell-based, mouse; settings: KP^sh-2 cells, 4 mM DM-αKG for 72 h
Description: (§1) BrdU, Annexin-V, 5hmC Flow Cytometry Assays. BrdU (BD Pharmigen) and Annexin V (BDPharmigen) analysis was performed in triplicate in cells plated in 6-well dishes under indicated conditions via manufacturers' protocols. 5hmC flow was performed in triplicate in cells plated in 6-well dishes. Briefly, adherent cells were washed with PBS, collected by trypsinization, and fixed on ice for 15 minutes in fixation/permeabilization solution (BD Cat #554714). The cells were then washed with 1× perm/wash buffer (BD Cat #554714) supplemented with 0.1% Triton X, treated with 1× perm/wash buffer supplemented with 0.5% Triton X and 0.5% Nonidet P-40 substitute for 30 minutes. Then, the cells were washed with 1× perm/wash buffer supplemented with 0.1% Triton X, incubated overnight at 4° C. with rabbit anti-5hmC antibody diluted 1:100 in 1× perm/wash buffer supplemented with 0.1% Triton X, washed with 1× perm/wash buffer supplemented with 0.1% Triton X, and incubated for 1 hour at room temperature with goat anti-rabbit Alexa Fluor 700 diluted 1:200 in 1× perm/wash buffer supplemented with 0.1% Triton X. The cells were then washed with 1× perm/wash buffer supplemented with 0.1% Triton X, resuspended in 1× perm/wash buffer, and analyzed.

[4] = tested on: p53 mutant human PDAC cells; assay: 5hmC flow cytometry in human PDAC cells; assay type: cell-based; settings: 8988 and Panel cells, 4 mM DM-αKG for 72 h
Description: as §1

KP^sh cells [5] = assay: Cell cycle arrest and senescence (BrdU, SA-β-gal) in KP^sh PDAC cells; assay type: cell-based, mouse; settings: KP^sh cells on dox; 3 μM etoposide or 25 nM trametinib, 48 or 96 hours
Description: Cell Lines and Cell Culture Treatments. KP^sh-1-3 cells were derived from PDAC that developed in three separate Pdx1-Cre; LSL-KrasG12D; Col1a1-TRE-shp53-shRenilla; Rosa26-CAGs-LSL-rtTA-IRES-mKate2 mice generated by blastocyst injection and maintained on doxycycline (dox) chow (625 mg/kg, Harlan Laboratories) 5 days from birth until sacrifice. […] Guide strands for Col1a1 targeted tandem shRNAs were: p53, [sequence] (SEQ ID NO: 1) and Renilla, [sequence] (SEQ ID NO: 2). […] Tumors were diced with scissors and resulting pieces sequentially digested with 1 mg/ml collagenase V (Sigma) diluted in Hanks Buffered saline solution followed by 0.25% Trypsin. Digested suspensions were washed with complete DMEM (DMEM, 10% FBS (GIBCO), 1× Penicillin/Streptomycin) and propagated in complete DMEM on collagen-coated plates (PurCol, Advanced Biomatrix, 0.1 mg/ml). KP^sh cells were grown in complete DMEM supplemented with 1 μg/ml doxycycline.
Senescence Associated Beta-Galactosidase (SA-β-Gal) Assay. SA-β-gal activity was detected as described previously. […] At least 200 cells were analyzed from triplicate wells at all conditions. […]

KP^sh cells [6] = assay: αKG/succinate ratio in KP^sh PDAC cells (metabolite profiling); assay type: cell-based, mouse; settings: KP^sh cells on dox; 3 μM etoposide or 25 nM trametinib, 48 or 96 hours
Description: Cell Lines and Cell Culture Treatments. KP^sh-1-3 cells were derived from PDAC that developed in three separate Pdx1-Cre; LSL-KrasG12D; Col1a1-TRE-shp53-shRenilla; Rosa26-CAGs-LSL-rtTA-IRES-mKate2 mice generated by blastocyst injection and maintained on doxycycline (dox) chow (625 mg/kg, Harlan Laboratories) 5 days from birth until sacrifice. […] KP^floxRIK cells were derived from PDAC that developed in a p48-Cre; LSL-KrasG12D; p53^flox/+; Rosa26-CAGs-LSL-rtTA-IRES-mKate2 mouse generated by blastocyst injection. KP^R172HRIK cells were derived from tumors that developed in a p48Cre^ER; LSL-KrasG12D; LSL-p53^R172H/+; Rosa26-CAGs-LSL-rtTA-IRES-mKate2 mouse generated by blastocyst injection. […]
Metabolite Profiling. […] Samples were analyzed using an Agilent 7890A GC coupled to Agilent 5975C mass selective detector. […] Peaks representing compounds of interest were extracted and integrated using MassHunter software (Agilent Technologies) and peak area was normalized to the internal standard (d5-2HG) peak area and protein content of duplicate samples as determined by BCA protein assay (Thermo Scientific). Ions used for quantification of metabolite levels are as follows: d5-2HG m/z 354; citrate, m/z 465; αKG, m/z 304; aspartate, m/z 334; fumarate, m/z 245; malate, m/z 335 and succinate, m/z 247. […]

Question: What does the source list for `O=C(O)CCCCC(CCSCc1ccccc1)SCc1ccccc1` (centres unmarked) [CPI-613]?
Answer: cellular ratio of αKG:succinate [1]: not; specificity for OGDH (OGDH): lacks specificity for OGDH; concentration at which OGDH is inhibited (OGDH; in vitro): > 200 µM

Question: With `CC(=O)[O-].[Na+]` [acetate, sodium acetate] as the molecule, how does the “induction of pre-malignant associated genes co-regulated by p53 and αKG (qRT-PCR)” value (KP^sh cells [2]; 4 mM, 72 h) read?
Answer: Its value is “not”.

Question: How did the “chromatin accessibility (ATAC-Seq)” value (KP^sh cells [3]) turn out when `COC(=O)CCC(=O)C(=O)OC` [cell-permeable αKG, dimethyl-α-ketoglutarate] was run?
Answer: The value was “global increase in chromatin accessibility”.

Question: And the “expression of genes enriched in malignant PDAC cells (GSEA)” value (KP^sh cells [2])?
Answer: Its value is “concomitant downregulation of genes enriched in malignant PDAC cells”.

Question: And the “expression of genes of premalignant PanIN lesions (GSEA)” value (KP^sh cells [2])?
Answer: The value was “robust increase in expression of genes selectively expressed in cells derived from premalignant PanIN lesions”.

Question: And the “cellular 5hmC” value (dox-treated KP^sh cells)?
Answer: Its value is “induced cellular 5hmC”.

Question: What about the “cellular 5hmC” value [4] of the same molecule?
Answer: Its value is “induced cellular 5hmC”.

Question: What does the source list for `COc1cc([C@@H]2c3cc4c(cc3[C@@H](O[C@@H]3O[C@@H]5CO[C@@H](C)O[C@H]5[C@H](O)[C@H]3O)[C@H]3COC(=O)[C@H]23)OCO4)cc(OC)c1O` [etoposide]?
Answer: cell cycle arrest and senescence (KP^sh cells [5]): triggered cell cycle arrest and senescence; αKG/succinate ratio (KP^sh cells [6]): neither altered the αKG/succinate ratio
